Source: patent publication US20030054389A1, “Methods for identifying agents that induce a cellular phenotype, and compositions thereof” (priority 2001, published 2003)

How the values were obtained:
[1] = tested on: HT29 cells; assay: Induction of apoptosis in HT29 cells carrying pVT324; type: cell-based, human; conditions: after 48 hours of treatment
Experimental: Cells that are positive for PI uptake may either be necrotic, or be in the late stages of apoptosis. In order to address specifically the question of whether DNA recovered from cells undergoing apoptosis can serve as a good template for PCR, the following experiment was performed. HT29 cells containing a retroviral construct that constitutively expresses GFP (pVT324) were treated with sulindac sulfide to induce apoptosis. […] Apoptotic cells were counted into PCR tubes and PCR was carried out using primers specific for the amplification of the retroviral GFP construct. Live cells from an untreated culture were used as PCR controls. There was no apparent difference in amplification of the GFP product from apoptotic cells when compared to live cells (FIG. 11). Thus DNA recovered from cells undergoing either necrotic or apoptotic cell death can serve as an effective template for PCR amplification and construction of sublibraries.

[2] = tested on: HuVEC 9F0293 cells; assay: Time course of detachment and PI staining of HuVEC 9F0293; type: cell-based, Human; conditions: puromycin 2 ug/ml
Experimental: To determine the time course in which dead and/or dying HuVECs detach from the solid support in response to a cytotoxic agent, 9F0293 cells were plated and subsequently treated with puromycin (2 ug/ml). Both floater and adherent cell populations were then collected at varying times (t=4, 7, 9, 16, 20, and 24 hours) and analyzed to determine (a) the percent PI^+ cells in the floater population and (b) the fraction of cells which became floaters. […] The fraction of floaters that stained with PI (PI^+ population) increased with time.

[3] = tested on: T47D cells; assay: Camptothecin kill curve in T47D cells; type: cell-based
Experimental: Approximately 250,000 cells were seeded into each well of a six well plate. Cells were then grown in media containing camptothecin of varying concentrations (0-10 uM). After 5 days, the number of cells remaining in each of the camptothecin-treated wells was compared with untreated controls. From these experiments, it was determined that camptothecin concentrations ranging from 1-4 nM had no effect on T47D cell number over the course of the 5 days of treatment. […] In order to determine whether this level of treatment is concomitantly increasing the number of floaters in the population, several flasks are seeded with T47D cells and then treated with 1-4 nM concentrations of camptothecin. After a period of three to five days, the media is collected and the number of floater cells are counted and compared to the total number of cells in the flask (floaters+adherents).

[4] = tested on: WM35 (melanoma) cells; assay: Caspase-3 fluorescent substrate (Rhodamine 123-YVAD) and PI staining of WM35 floaters; type: cell-based; conditions: Cisplatin 15 μg/ml, floaters collected 18-24 hours after induction
Experimental: WM35 cells were passed one day prior to induction of apoptosis and incubated for 24 hrs to allow the cells to attach to the substrate. The media was subsequently removed, the remaining adherent cells washed 1× with PBS, and subsequently exposed to Cisplatin (15 μg/ml) in fresh media. Eighteen to twenty-four hours after the induction of apoptosis, the floater cell population was collected, pelleted by centrifugation (400× g), and resuspended at 3×10^6 cells/ml in PBS. Samples were then split into four groups: (I) uninduced minus Rhodamine 123-YVAD (substrate), (2) uninduced plus substrate, (3) induced minus substrate, and (4) induced plus substrate. For samples exposed to Rhodamine 123-YVAD substrate, 50 ul of a pre-warmed (37° C.) cell suspension was combined with 25 ul of a stock substrate solution (Celiprobe). Samples were incubated for 60 minutes at 37° C. and then placed on ice prior to FACS analysis. In addition to caspase-3 staining, a replicate of each sample was stained with propidium iodide to determine the percentage of cells within the population whose membranes had been compromised and the overlap between PI and caspase-3 staining. […] Emission spectra were read at 515-535 nm wavelength using the FLI (PMT2) 525 nm blue filter.

[5] = tested on: HS294T cells; assay: Nuclear condensation / ethidium homodimer and Syto16 staining, HS294T; type: cell-based
Experimental: (§1) Two cell lines, WM35 and HS294T, were plated out (50,000 cells per well, 24 well plate) and allowed to adhere. After 24 hours, the cells were treated for 4 hours with varying concentrations (5-80 μM) of Cisplatin (cis-platinum (II) diammine dichloride), a well-known chemotherapeutic agent that induces apoptosis. […] Adherent cell populations were then lifted from the solid support by trypsinization, centrifuged (400× g), and resuspended in PBS (0.125 ml). To observe the nuclear morphology and percent cell death in the WM35 and HS294T cell lines, cells from both floater and adherent populations were stained concurrently with Syto16 and ethidium homodimer (125 ul of cell suspension+2.5 ul 62.5uM Sytol6+[…] 10 ug/ml ethidium homodimer, 10 minutes at 37° C.). Ethidium homodimer is a membrane impermeant compound that fluoresces in the 617 nm range when it is intercalated with chromosomal DNA. Thus, in a mixed cell population containing both living and dead/dying cells, only those cells whose membranes have been compromised will stain with ethidium homodimer. In contrast, Syto 16 (Molecular Probes) is a membrane permeant dye that fluoresces in the 518 nm range when associated with chromosomal DNA. Together, these two dyes can be used to observe and distinguish the nuclear morphology in a population containing both living and dead/dying cells.

[6] = tested on: WM35 cells; assay: Nuclear condensation / ethidium homodimer and Syto16 staining, WM35; type: cell-based
Experimental: as §1

[7] = tested on: ECR293 cells containing pBIGFII and ecdysone receptor (pVgRXR); assay: Ecdysone-inducible pBIGFII vector fluorescence in ECR293 cells; type: cell-based; conditions: 5 μM ponesterone A
Source text: As an alternative to the constitutive pCLMFG vector, an inducible construct that can be regulated by ecdysone was constructed as follows. The PmlI/XhoI fragment from pVT324 was inserted into the MCS of the PIND vector (Invitrogen). This product was then digested with BglII, blunt-ended and inserted into a pBabe-K-ras vector (pVT313-based) that had been digested with BamHI/XhoI and blunted (Klenow Fragment). The resulting vector was designated pBabe-Forward-1. The XbaI fragment of pVT324 was then inserted into the compatible site of pBabe-Forward-1. The resulting vector was designated pBIGFII. Vector pBIGFII was subsequently transfected into cells (ECR293, Invitrogen) that contain an endogenous copy of the ecdysone receptor (pVgRXR).

[8] = tested on: HMEC 96C cells; assay: Floater assay with propidium iodide viability, HMEC 96C; type: cell-based, human; conditions: for Propidium Iodide Staining / Percent Floaters: HMEC 96C
Experimental: (§2) A floater assay involving primary human mammary cells (HMECs), immortalized and transformed with a minimum number of genetic elements, was performed as follows. Primary pooled HMECs (Biowhittaker/Clonetics) were immortalized and transformed with two methods: 1) Serial introduction and expression of retroviral constructs encoding SV-40 Lg T Ag, human telomerase catalytic subunit hTERT, and activated V12H-ras (method of Hahn, et al, Nature 400: 464-468, 1999) and 2) serial introduction and expression of constructs encoding HPV-16 E6/E7, hTERT and V12H-ras. The lines are designated 96C and 96A, respectively. The retroviral constructs BABE/neomycin/SV-40 Lg T Ag BABE/LNCX/puromycin/hTERT, LXSN/hygromycin/V-12H-Ras and LXSN/neomycin/HPV-16 E6/E7 were utilized.
(§3) To determine background floater rates, cells were plated to 20% confluency in three 100 mm dishes (100000 cells/dish) and the number of floaters as a percentage of total cells (adherent+floaters) and the viability of floaters ascertained at two, three and four days post-platin . Viability was assessed by measuring propidium iodide uptake. In addition to untreated controls, a transduction control vector pVT 340 (pCLMFG/GFP) and a positive control BID/MFG vector, a pro-apoptotic protein previously identified in a colorectal carcinoma HT29 negative selection, were utilized. Cells were transduced with 30% (v/v) viral supernatants at 95% and 45% rates, respectively.

[9] = tested on: HMEC 96A cells; assay: Floater assay with propidium iodide viability, HMEC 96A; type: cell-based, human; conditions: for Propidium Iodide Staining / Percent Floaters: HMEC 96A
Experimental: as §2, §3

CSc1ccc(/C=C2/C(C)=C(CC(=O)O)c3cc(F)ccc32)cc1 [sulindac sulfide]
cell detachment and apoptotic morphology [1]: the majority of the cells had detached from the dish and showed typical apoptotic morphology

COc1ccc(C[C@H](N)C(=O)N[C@H]2[C@@H](O)[C@H](n3cnc4c(N(C)C)ncnc43)O[C@@H]2CO)cc1 [puromycin]
time course of detachment [2]: the majority of HuVECs detached by the 16-hour time point
floater cells in the PI+ gate ([2]; by 20 hours): nearly all
cells that became floaters ([2]; within 24 hours): 90-99%
PI− versus PI+ floater cells ([2]; 4, 7, and 9 hours): near equal numbers

CC[C@@]1(O)C(=O)OCc2c1cc1n(c2=O)Cc2cc3ccccc3nc2-1 [camptothecin]
cell number relative to untreated control ([3]; 10 nM camptothecin, 5 days): roughly one third that found in the untreated control
concentration tolerated without adverse effect on cell viability or division ([3]; 5 days): up to 4 nM
concentrations at which virtually no cells remained adhered to the plate ([3]; 5 days): greater than 50 nM
concentrations resulting in a decrease in cell number relative to untreated control ([3]; 5 days): greater than 4 nM
concentrations with no effect on T47D cell number ([3]; 5 days of treatment): 1 to 4 nM

N.N.[Cl-].[Cl-].[Pt+2] [Cisplatin, cis-platinum (II) diammine dichloride]
caspase-3 positive cells among PI-minus floater cells [4]: 94.6%
ethidium homodimer staining of adherent cell population ([5]; HS294T adherent cells, Cisplatin experiment): < 10%
cells showing condensed or fragmented nuclei ([5]; HS294T floaters stained with ethidium homodimer, Cisplatin treated): < 20%
floater cells stained with ethidium homodimer ([5]; HS294T floaters, Cisplatin 5-80 μM 4 hours, collected 18-24 hrs later): greater than 50%
ethidium homodimer staining of adherent cell population ([6]; WM35 adherent cells, Cisplatin experiment): < 10%
floater cells stained with ethidium homodimer ([6]; WM35 floaters, Cisplatin treated): 45-50%
condensed or fragmented nuclei ([6]; WM35 floaters, higher concentrations of Cisplatin): 40-50%

CC(C)CC[C@@H](O)[C@](C)(O)[C@H]1CC[C@@]2(O)C3=CC(=O)[C@@H]4C[C@@H](O)[C@@H](O)C[C@]4(C)[C@H]3CC[C@]12C [ponesterone A]
increase of fluorescence level versus absence of inducer [7]: increases by approximately thirty fold

B1: BID: positive control BID/MFG vector, a pro-apoptotic protein previously identified in a colorectal carcinoma HT29 negative selection (protein, UniProt P55957 1-195, looked up)
BH3-interacting domain death …: MDCEVNNGSSLRDECITNLLVFGFLQSCSDNSFRRELDALGHELPVLAPQWEGYDELQTDGNRSSHSRLGRIEADSESQEDIIRNIARHLAQVGDSMDRSIPPGLVNGLALQLRNTSRSEEDRNRDLATALEQLLQAYPRDMEKEKTMLVLALLLAKKVASHTPSLLRDVFHTTVNFINQNLRTYVRSLARNGMD
modifications: expressed from MFG retroviral vector
notes: positive control BID/MFG vector, a pro-apoptotic protein previously identified in a colorectal carcinoma HT29 negative selection
Propidium Iodide Staining ([8]; Adherent, DAY 3): 8.5%
Propidium Iodide Staining ([8]; Adherent, DAY 4): 0.5%
Percent Floaters ([8]; DAY 2): 46%
Percent Floaters ([8]; DAY 3): 58%
Percent Floaters ([8]; DAY 4): 7%
Propidium Iodide Staining ([8]; Floaters, DAY 3): 81%
Propidium Iodide Staining ([8]; Floaters, DAY 4): 70%
propidium iodide positive (adherents) ([8]; line 96C, days 3 and 4): 0.5-8.5%
propidium iodide positive in floaters ([8]; line 96C, days 3 and 4): 70-81%
Propidium Iodide Staining ([9]; Adherent, DAY 3): 1.6%
Propidium Iodide Staining ([9]; Adherent, DAY 4): 0.4%
Percent Floaters ([9]; DAY 2): 54%
Percent Floaters ([9]; DAY 3): 25%
Percent Floaters ([9]; DAY 4): 8%
Propidium Iodide Staining ([9]; Floaters, DAY 3): 72%
Propidium Iodide Staining ([9]; Floaters, DAY 4): 45%
propidium iodide positive in adherents ([9]; line 96A, days 3 and 4): 0.4-1.6%
propidium iodide positive in floaters ([9]; line 96A, days 3 and 4): 45-75%
